Test results: article PMC6268294, “Synthesis of Chalcones with Anticancer Activities” (Molecules, 2012)
In brackets after ≈: the same amount, converted by molar mass. Read-outs that look alike come from different tables or passages of the source.

How the values were obtained:
[1] = system: human lung adenocarcinoma cell line A549; assay: MTT cell viability assay, A549; assay type: cell-based; conditions: 24 h treatment
Method: (§1) A549, PC3, MCF-7, HT-29, WRL68 and MCF-7 cells were obtained from the ATTC (Rockville, MD, USA) and grown in RPMI-1640 medium, 10% fetal bovine serum (FBS) and 1% pen-strep, in humidified conditions at 5% CO2 and 37 °C. The different cell lines mentioned above were used to determine the inhibitory effects of compounds on cell growth using the MTT assay. This colorimetric assay is based on the conversion of the yellow tetrazolium bromide (MTT) to a purple formazan derivative by mitochondrial succinate dehydrogenase in viable cells. Cells were seeded in 96-well plate and incubated for 24 h at 37 °C with 5% CO2 saturation. After incubation, the cells were treated with different concentration of compounds and incubated for another 24 h. After 24 h of drug treatment, 20 µL of MTT solution at 5 mg/mL was added and incubated for 4 h. Dimethyl sulfoxide (DMSO) in volume of 100 µL is added into each well to dissolve the purple formazan formed. The colorimetric assay is measured and recorded at absorbance of 570 nm.

[2] = system: human prostate cancer cell line PC3; assay: MTT cell viability assay, PC3; assay type: cell-based; conditions: 24 h treatment
Method: as §1

[3] = system: human breast adenocarcinoma cell line MCF-7; assay: MTT cell viability assay, MCF-7; assay type: cell-based; conditions: MCF7, 24 h treatment
Method: as §1

[4] = system: human adenocarcinoma cell line HT-29 (colorectal cancer); assay: MTT cell viability assay, HT-29; assay type: cell-based; conditions: 24 h treatment
Method: as §1

[5] = system: human normal liver cell line WRL-68; assay: MTT cell viability assay, WRL68; assay type: cell-based; conditions: 24 h treatment
Method: as §1

[6] = system: MCF-7 (breast), A549 (lung), PC3 (prostate), HT-29 (colorectal) and WRL68 (liver); assay: MTT assay, summary over all five cell lines; assay type: cell-based, human; conditions: for IC50: Homo sapiens
Method: as §1

MCF-7 cells = assay: Multiparametric high content screening (HCS) cytotoxicity/apoptosis assay; assay type: cell-based, human
Method: The toxic effects of Cpd 1, 5, 23 and 25 at different doses on MCF-7 cells were assayed using the high content screening (HCS) KineticScan Reader (Cellomics Inc, Pittsburgh, PA, USA) with the Multiparameter Cytotoxicity Kit 3. The kit contains four fluorescent dyes, i.e., blue fluorescent Hoechst 33342, membrane permeability, mitochondrial membrane potential, and cytochrome c dyes. They respectively detect changes in nuclear morphology (nuclear condensation), membrane permeability, mitochondrial membrane potential and expression of cytochrome c. The multiparametric apoptosis kit quantifies three fundamental parameters related to the process of apoptosis, i.e., nuclear condensation detected by the blue fluorescent nuclear dye, Hoechst 33342, cell permeability detected by permeability dye, mitochondrial damage detected by mitochondrial membrane potential dye and cytochrome c release by DyLight 649 Conjugates. Following treatment with different concentrations of compounds 1, 23, 25 and 5 as mentioned before, the fixation and staining for imaging analysis of the MCF-7 cells were performed according to the manufacturer’s instructions. […] Plates were analyzed using a Thermo Scientific ArrayScanHVTI HCS Reader (Cellomics Inc, Pittsburgh, PA, USA). This is a computerized automated fluorescence imaging microscope that automatically identifies stained cells and measures the intensity and distribution of fluorescence in individual cells. Images for each fluoroprobe were acquired at different channels using suitable filters with 20x objective at fixed exposure time. The Cell Health Profiling BioApplication software was used for image acquisitions and analysis. For each well, at least 25 fields, corresponding to at least 500 cells were automatically acquired and analyzed. All experiments were performed in triplicates. Cell average intensity (Mean) under the modified object mask within selected range in each channel was used as assay indicator, and reported as average fluorescence intensity.

caspase-8 in MCF-7 cells = assay: Caspase-Glo-8 activity; assay type: cell-based, human; conditions: MCF-7, 24 h, highest concentrations (6 µg/mL; 25: 4 µg/mL); control printed 50892 RLU; p < 0.05
Method: Due to the observation of significant cytotoxicity of selected compounds towards MCF-7 cells, the following analyses were done on them only. Cells were treated with compound 1 (1A- 3 µg/mL; 1B- 6 µg/mL), 23 (23A- 3 µg/mL; 23B- 6 µg/mL), 25 (25A- 2 µg/mL; 25B- 4 µg/mL) and 5 (5A- 3 µg/mL; 5B- 6 µg/mL).
Activity of cellular caspases was measured using the Caspase-Glo-9, Caspase-Glo-3/7 and Caspase-Glo-8 assay reagents (Promega), according to the manufacturer's instructions. The assays provide a luminogenic caspase-3/caspase-7 or caspase-8 or caspase-9 substrate, respectively, in a buffer system optimized for caspase activity measurement in cell lysates. The luciferase signal generated is proportional to the amount of caspase activity present. MCF-7 cells have no caspase-3 activity due to functional deletion of the CASP-3 gene. Therefore, the activity measured in this test is that of caspase-7. Briefly, cells were plated in opaque 96-well plates in triplicate and treated with […]. After 24 h treatment with compounds 1, 23, 25 and 5 as mentioned before, the assay reagents were added to the plates at room temperature and incubated for 60 min, and the luminescence was measured using a plate reader. All assays were done in triplicate, and means ± SD were calculated for each condition.

[7] = all five cell lines, MTT, read-out: IC50 in all cell lines
[8] = MCF-7, compounds 2-6 µg/mL, tamoxifen 0.04 µg/mL, vs control

| SMILES | IC50 [1] | IC50 [2] | IC50 [3] | IC50 [4] | IC50 [5] | cytotoxic effect in words [6] | cytotoxic effect in words ([6]; all cell lines, MTT) | melting point | IC50 ([6]; all cell lines except for the A549 cell line, MTT, read-out: IC50 in all cell lines except A549) | IC50 [6, 7] | cell (membrane) permeability (MCF-7 cells; [8]) | cytochrome c release (MCF-7 cells; [8]) | mitochondrial membrane potential (MCF-7 cells; [8]) | total nuclear intensity (Hoechst 33342 nuclear chromatin staining) (MCF-7 cells; [8]) | cell loss (MCF-7 cells; MCF-7, compounds 2-6 µg/mL, data not shown) | apoptosis in MCF-7 cells (MCF-7 cells; shown by multiparameter cytotoxicity assay and caspase-3/7, -8, -9 activities, p < 0.05) | caspase-8 activity at highest concentration (caspase-8 in MCF-7 cells) |
| --- | --- | --- | --- | --- | --- | --- | --- | --- | --- | --- | --- | --- | --- | --- | --- | --- | --- |
| COc1ccc(/C=C/C(=O)c2ccc(O)cc2)cc1 [Compound 14, 1-(4-Hydroxyphenyl)-3-(4-methoxyphenyl)-propenone] | > 100 µg/mL | > 100 µg/mL | > 100 µg/mL | > 100 µg/mL | > 100 µg/mL | low cytotoxic effects |  |  |  |  |  |  |  |  |  |  |  |
| COc1ccc(/C=C/C(=O)c2ccc(C)cc2)cc1 [Compound 15, 3-(4-Methoxyphenyl)-1-p-tolylpropenone] | > 100 µg/mL | 43.3 ± 4.01 µg/mL (≈ 171 µM) | 32.4 ± 1.88 µg/mL (≈ 128 µM) | 29.6 ± 2.8 µg/mL (≈ 117 µM) | 50.9 ± 3.51 µg/mL (≈ 202 µM) |  |  |  |  |  |  |  |  |  |  |  |  |
| COc1ccc(/C=C/C(=O)c2ccc(OC)cc2)cc1 [Compound 16, 1,3-Bis-(4-Methoxyphenyl)-propenone] | > 100 µg/mL | > 100 µg/mL | 41.4 ± 1.91 µg/mL (≈ 154 µM) | 67.1 ± 4.1 µg/mL (≈ 250 µM) | 60.8 ± 4.22 µg/mL (≈ 227 µM) |  |  |  |  |  |  |  |  |  |  |  |  |
| CN(C)c1ccc(/C=C/C(=O)c2ccccc2)cc1 [Compound 17, 3-(4-Dimethylaminophenyl)-1-phenyl-propenone] | > 100 µg/mL | > 100 µg/mL | 99.3 ± 6.16 µg/mL (≈ 395 µM) | 64.3 ± 5.02 µg/mL (≈ 256 µM) | > 100 µg/mL |  |  |  |  |  |  |  |  |  |  |  |  |
| CN(C)c1ccc(/C=C/C(=O)c2ccc(O)cc2)cc1 [Compound 18, 3-(4-Dimethylaminophenyl)-1-(4-hydroxy-phenyl)-propenone] | > 100 µg/mL | > 100 µg/mL | > 100 µg/mL | > 100 µg/mL | > 100 µg/mL |  | low cytotoxic effects |  |  |  |  |  |  |  |  |  |  |
| Cc1ccc(C(=O)/C=C/c2ccc(N(C)C)cc2)cc1 [Compound 19, 3-(4-Dimethylaminophenyl)-1-p-tolyl-propenone] | 58.5 ± 3.2 µg/mL (≈ 221 µM) | > 100 µg/mL | 57.3 ± 3.1 µg/mL (≈ 216 µM) | 69.5 ± 4.23 µg/mL (≈ 262 µM) | 39.8 ± 3.9 µg/mL (≈ 150 µM) |  |  | 124 to 125 °C |  |  |  |  |  |  |  |  |  |
| COc1ccc(C(=O)/C=C/c2ccc(N(C)C)cc2)cc1 [Compound 20, 3-(4-Dimethylaminophenyl)-1-(4-methoxy-phenyl)-propenone] | 78.8 ± 4.4 µg/mL (≈ 280 µM) | > 100 µg/mL | > 100 µg/mL | > 100 µg/mL | > 100 µg/mL | low cytotoxic effects |  |  |  |  |  |  |  |  |  |  |  |
| O=C(/C=C/c1ccccc1O)c1ccccc1 [Compound 21, 3-(2-Hydroxyphenyl)-1-phenylpropenone] | 22.6 ± 1.1 µg/mL (≈ 101 µM) | 11.1 ± 0.4 µg/mL (≈ 49.4 µM) | 9.35 ± 1.2 µg/mL (≈ 41.7 µM) | 19.8 ± 2.01 µg/mL (≈ 88.5 µM) | 17 ± 1.7 µg/mL (≈ 75.9 µM) |  |  |  | < 20 µg/mL |  |  |  |  |  |  |  |  |
| O=C(/C=C/c1ccccc1O)c1ccc(O)cc1 [Compound 22, 3-(2-Hydroxyphenyl)-1-(4-hydroxyphenyl)-propenone] | > 100 µg/mL | > 100 µg/mL | > 100 µg/mL | > 100 µg/mL | > 100 µg/mL | low cytotoxic effects |  | 287 to 289 °C |  |  |  |  |  |  |  |  |  |
| COc1ccc(C(=O)/C=C/c2ccccc2O)cc1 [Compound 24, 3-(2-Hydroxyphenyl)-1-(4-methoxyphenyl)-propenone] | 14.2 ± 1 µg/mL (≈ 55.7 µM) | 5.58 ± 0.2 µg/mL (≈ 22 µM) | 7.15 ± 0.4 µg/mL (≈ 28.1 µM) | 11.4 ± 1 µg/mL (≈ 44.9 µM) | 8.72 ± 1 µg/mL (≈ 34.3 µM) | high cytotoxicity |  |  |  | < 20 µg/mL |  |  |  |  |  |  |  |
| O=C(/C=C/c1cccc(Cl)c1)c1ccccc1 [Compound 25, 3-(3-Chlorophenyl)-1-phenylpropenone] | 14.5 ± 0.2 µg/mL (≈ 59.7 µM) | 6.94 ± 0.61 µg/mL (≈ 28.6 µM) | 5.25 ± 0.67 µg/mL (≈ 21.6 µM) | 7.77 ± 1.1 µg/mL (≈ 32 µM) | 7.72 ± 1.6 µg/mL (≈ 31.8 µM) | high cytotoxicity |  |  |  | < 20 µg/mL | increased cell permeability | cytochrome c release from mitochondria | loss of mitochondrial membrane potential | increased total nuclear intensity | statistically significant cell loss | capable in eliciting apoptosis | 18,356 RLU |
| CC/C(=C(\c1ccccc1)c1ccc(OCCN(C)C)cc1)c1ccccc1 [tamoxifen, reference compound] |  |  |  |  |  |  |  |  |  |  |  | found to increase | reduction in mitochondrial membrane potential dye retention | increase in nuclear chromatin staining |  |  |  |
